“And” between values parts separate entries of the source, which are not always exact repeats. Equal values may be shown once.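 Test compounds were applied to cells in 96-well plates for 48 hours at 5 doses. The concentration for 50% growth inhibition is given as GI50. TGI: total growth inhibition.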

The test system of this experiment is MDA-MB-468 breast. Nature of the experiment: DTP human tumour cell line panel, 48 h.
By GI50 is commonly meant the concentration at which growth is held to half of that of the control. Usually TGI stands for the concentration at which net growth stops. A low value points to greater sensitivity of the cells. For the molecule `COc1cc(NCCCCN=C(N)NC(N)=NC(C)C)c2ncccc2c1`, the GI50 was 0.106 µM and the total growth inhibition concentration (TGI) is 0.435 µM.

Turning to `CCC(C)n1cc(C)c2c(C(=O)NCc3c(C)cc(C)[nH]c3=O)cc(Br)cc21` (centres undefined), the GI50 was 22.8 µM and the total growth inhibition concentration (TGI) was above 100 µM.

For `O=[N+]([O-])c1ccc(-c2nc(-c3ccccc3)c(-c3ccccc3)n2-c2ccccc2)cc1`, the GI50 is 3.77 µM and the TGI came out at 12.7 µM.

As for `CN1CCCNc2c(c(=O)c2=O)NCCCN(C)CCCNc2c(c(=O)c2=O)NCCCN(C)CCCNc2c(c(=O)c2=O)NCCCN(C)CCCNc2c(c(=O)c2=O)NCCCN(C)CCCNc2c(c(=O)c2=O)NCCCN(C)CCCNc2c(c(=O)c2=O)NCCCN(C)CCCNc2c(c(=O)c2=O)NCCC1`, the GI50 was 2 µM and the total growth inhibition concentration (TGI) worked out at 12 µM.

Turning to `Cc1cc2cc3cc(C)c(N(C)C)cc3nc2cc1N(C)C`, the GI50 was 0.8 µM and the total growth inhibition concentration (TGI) came to 9.01 µM.

For `N#Cc1c(-c2ccc(Cl)cc2)n(O)c2ccccc12`, the GI50 was 1.63 µM and the TGI was determined as 4.71 µM.

For `CCCCCCCC/C=C/CCCCCCCCC1=NCCN1CCO`, the GI50 was 10.3 µM and the TGI was 26.6 µM.

Turning to `Cc1nc2sccn2c(=O)c1CCN1CCC(=C(c2ccc(F)cc2)c2ccc(F)cc2)CC1`, the GI50 was 5.05 µM and the TGI was 19 µM.

For the molecule `CS(=O)CCCCCN=C=S` (centres undefined), the GI50 was 2.68 µM and the TGI amounted to 9.94 µM.

As for `COc1ccccc1-n1c(-c2cc(O)ccc2C)cn2c3c(=O)[nH]c(=O)n(C)c3nc12`, the GI50 was 15.6 µM and the TGI was above 100 µM.

`C=C(C)[C@@H]1CC[C@]2(C)[C@H](C(=O)C=C3[C@@H]4C[C@](C)(C(=O)N5CCN(C)CC5)CC[C@]4(C)CC[C@]32C)[C@@]1(C)CCC#N`: the GI50 was 5.92 µM and the total growth inhibition concentration (TGI) was found to be 13.2 µM.

With `CCCCCCCC/C=C/CCCCCCCC1=NCC[N+]1(CCO)CCO`, the GI50 is 1.78 µM and the total growth inhibition concentration (TGI) amounted to 4.56 µM.

In the case of `CN(C)c1ccc(/C=C(/NC(=O)c2ccccc2)c2nc3ccc(Cl)cc3[nH]2)cc1`, the GI50 was 20.5 µM and the TGI came out at 70.5 µM.

`COC(=O)c1ccc2c(c1)nc(-c1cc3ccccc3[nH]c1=O)n2-c1cc(C(C)(C)C)[nH]n1`: the GI50 is 13.7 µM and the total growth inhibition concentration (TGI) was above 100 µM.

`NC(CSC(c1ccccc1)(c1ccccc1)c1ccc(Cl)cc1)C(=O)O` (centres undefined): the GI50 was 0.0819 µM and the total growth inhibition concentration (TGI) was determined as 4.18 µM.

Consider `COc1cc(C)c(-c2ccc(=O)c(OC)cc2C)c(OC)c1OC`, for which the GI50 is > 100 µM and 14 µM; the TGI was above 100 µM.

`ClC1=C(Cl)C(Cl)=C(Cl)C1=C/C=C/c1ccccc1`: the concentration for 50% growth inhibition (GI50) was 0.186 µM and the TGI was found to be 0.433 µM.

Consider `CCOc1ccc([C@@H]2[C@@H](Oc3ccccc3)C(=O)N2c2cc(OC)c(OC)c(OC)c2)cc1`, for which the concentration for 50% growth inhibition (GI50) is 0.0459 µM and the total growth inhibition concentration (TGI) was above 100 µM.

As to `CC(=O)c1ccc(NC(=O)CSc2nnc(-c3cc(-c4ccc(C)cc4)nc4ccccc34)o2)cc1`, the GI50 is 3.54 µM and the total growth inhibition concentration (TGI) is above 100 µM.

Consider `CC(C)(C)c1nc2c(o1)C(=O)c1ccccc1C2=O`, for which the GI50 was 0.184 µM and the total growth inhibition concentration (TGI) stood at 0.564 µM.

For the molecule `NCCCNc1nc2ccccc2c2c(=O)c3cc(C(F)(F)F)ccc3sc12`, the GI50 is 1.53 µM and the concentration for total growth inhibition (TGI) turned out to be 2.99 µM.

Consider `COc1cccc(C2C(C#N)=C(N)Oc3cc(N)ccc32)c1` (centres undefined), for which the GI50 is 0.282 µM and the concentration for total growth inhibition (TGI) came to 0.987 µM.

`COc1cc(/C=C/c2cc(/C=C/c3ccc(O)c(OC)c3)n(-c3c(C)cccc3C)c(=O)n2)ccc1O`: the GI50 was 0.835 µM and the TGI stood at 3.61 µM.

For the molecule `NC(=NCCCOc1ccc(Cl)cc1)Nc1ccc(Cl)cc1`, the GI50 is 1.71 µM and the TGI is 3.78 µM.

Consider `CC(C)CCOc1ccc(-c2n[nH]c(C(F)(F)F)c2-c2cncc(C#N)c2)c(O)c1`, for which the GI50 is 1.01 µM and the TGI is 4.83 µM.

As for `CCN(CC)CCCNc1cccc2c(SCc3ccccc3)ccnc12`, the GI50 was 1.88 µM and the TGI worked out at 3.43 µM.

Regarding `CC(=O)Nc1ccc(Sc2ccc([N+](=O)[O-])o2)cc1`, the GI50 is 0.933 µM and the TGI was 2.81 µM.

As for `CC(=O)N1CC(Nc2ccc(OC(F)(F)F)cc2)=CC1=O`, the GI50 was 0.662 µM and the total growth inhibition concentration (TGI) is 4.74 µM.

Consider `COc1ccc(C(=O)c2ccc(OC)c(OC)c2OC)cc1`, for which the GI50 was 0.696 µM and the total growth inhibition concentration (TGI) is 9.94 µM.

On to `CC(C)[C@@]12C[C@@H](OC(=O)[C@H]3CO3)[C@@](C)(O1)[C@@H]1CC[C@@H](C)[C@H]1[C@@H]2OC(=O)/C=C/c1ccccc1`, for which the GI50 was 13.9 µM and the total growth inhibition concentration (TGI) was found to be 30.9 µM.

As for `Cc1cccc(Oc2nccc(-c3c(-c4ccc(F)cc4)ncn3C3CCNCC3)n2)c1C`, the GI50 was 2.95 µM and the TGI was found to be 6.46 µM.

As for `Cc1ccc(N2CCN(C3=C(Cl)C(=O)c4ncccc4C3=O)CC2)cc1`, the GI50 was 1.49 µM and the TGI amounted to 3.04 µM.

Take `CCN(CC)c1cc(/C=C/c2ccc(OC)c(OC)c2)nc2cc(F)c(F)cc12`: the GI50 was 2.49 µM and the TGI stood at 10.3 µM.

With `CCCCCCCCCCCCCCCCCC1=NCCN1CS(=O)(=O)O`, the GI50 is 16.1 µM and the TGI is 33.8 µM.

Regarding `C=C1C[C@](OC)([C@H](O)C(=O)N[C@@H](OC)[C@@H]2C[C@@H](O)C(C)(C)[C@@H](C[C@@H](COC)OC)O2)O[C@H](C)[C@@H]1C`, the concentration for 50% growth inhibition (GI50) is 0.000941 µM and the total growth inhibition concentration (TGI) worked out at 0.00348 µM.

For `COc1ccc(Nn2c(SCC(=O)Nc3nc(-c4ccc(Cl)cc4)cs3)nc(C)c2C)cc1`, the GI50 is 0.574 µM and the concentration for total growth inhibition (TGI) was found to be 7.73 µM.

In the case of `CC1/C=C/C=C/C=C/C=C/C=C/C=C/C=C/C(O[C@@H]2O[C@H](C)[C@H](O)[C@@H](O)[C@@H]2N)CC(O)C(C(=O)O)C(O)CC(=O)CC(O)CC(O)CC(O)CC(=O)CCCC(=O)CC(=O)OC1C(C)CC(C)C(O)CC(=O)c1ccc(N)cc1` (some centres undefined), the GI50 was 0.0492 µM and 0.223 µM; the TGI was 0.0989 µM and 0.723 µM.

The record behind these values is PubChem BioAssay (NCI).
